From paper PMC9837035 (Nature Communications, 2023)
pIC50: −log10 of the molar value. Where “and” joins values, the source holds several entries; their conditions need not be identical. Identical values can stand only once.

How the values were obtained:
[1] = Mouse acute toxicity assay, body weight; assay type: in vivo, mice
Method: All animal studies were approved by the Institutional Committee for Animal Experiments of the Institute of Microbial Chemistry, and were performed in accordance with relevant guidelines and regulations to minimize animal suffering. Four-week-old female ICR mice were purchased from Charles River Breeding Laboratories (Yokohama, Japan) and maintained in a specific pathogen-free barrier facility. […] Samples were dissolved in saline containing 10% DMSO and 1% Tween 80 and injected intravenously into mice.

EZH2 (Y641F) = EZH2 (Y641F) (Homo sapiens, UniProt Q15910, Y641F); experiment: biochemical
Chain of EZH2 (Y641F) (Q15910 whole entry Y641F): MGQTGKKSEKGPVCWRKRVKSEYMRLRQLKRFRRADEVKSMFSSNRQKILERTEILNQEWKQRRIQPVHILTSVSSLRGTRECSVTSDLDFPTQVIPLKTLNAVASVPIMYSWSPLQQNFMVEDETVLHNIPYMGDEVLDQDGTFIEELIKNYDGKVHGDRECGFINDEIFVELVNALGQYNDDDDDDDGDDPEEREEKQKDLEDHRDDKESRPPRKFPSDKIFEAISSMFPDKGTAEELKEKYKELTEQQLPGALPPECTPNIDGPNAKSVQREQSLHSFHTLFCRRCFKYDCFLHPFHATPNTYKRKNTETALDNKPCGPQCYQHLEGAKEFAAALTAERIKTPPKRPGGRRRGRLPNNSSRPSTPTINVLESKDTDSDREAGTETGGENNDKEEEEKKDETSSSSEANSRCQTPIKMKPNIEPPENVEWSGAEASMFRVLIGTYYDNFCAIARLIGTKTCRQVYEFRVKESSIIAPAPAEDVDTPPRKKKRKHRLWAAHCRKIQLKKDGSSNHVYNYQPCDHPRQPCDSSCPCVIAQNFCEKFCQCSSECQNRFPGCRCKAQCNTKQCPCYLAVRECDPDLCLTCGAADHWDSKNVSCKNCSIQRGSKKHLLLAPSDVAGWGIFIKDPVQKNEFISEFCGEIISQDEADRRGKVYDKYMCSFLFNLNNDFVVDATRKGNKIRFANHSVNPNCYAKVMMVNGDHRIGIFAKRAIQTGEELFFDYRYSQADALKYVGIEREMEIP
Chain of EZH2 (Y641F) (O75530 whole entry partner): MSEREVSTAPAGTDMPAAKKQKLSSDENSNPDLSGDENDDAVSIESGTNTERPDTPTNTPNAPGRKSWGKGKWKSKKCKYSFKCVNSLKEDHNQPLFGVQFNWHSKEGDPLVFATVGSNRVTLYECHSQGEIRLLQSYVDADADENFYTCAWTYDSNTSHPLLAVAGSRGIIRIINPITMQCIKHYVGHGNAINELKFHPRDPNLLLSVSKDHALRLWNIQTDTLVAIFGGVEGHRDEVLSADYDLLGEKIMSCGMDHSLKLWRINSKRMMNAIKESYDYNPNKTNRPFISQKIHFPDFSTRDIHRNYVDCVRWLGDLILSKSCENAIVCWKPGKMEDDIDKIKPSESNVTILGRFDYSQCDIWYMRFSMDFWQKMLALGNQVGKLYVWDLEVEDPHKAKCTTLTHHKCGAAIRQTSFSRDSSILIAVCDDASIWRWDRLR
Chain of EZH2 (Y641F) (Q15022 whole entry partner): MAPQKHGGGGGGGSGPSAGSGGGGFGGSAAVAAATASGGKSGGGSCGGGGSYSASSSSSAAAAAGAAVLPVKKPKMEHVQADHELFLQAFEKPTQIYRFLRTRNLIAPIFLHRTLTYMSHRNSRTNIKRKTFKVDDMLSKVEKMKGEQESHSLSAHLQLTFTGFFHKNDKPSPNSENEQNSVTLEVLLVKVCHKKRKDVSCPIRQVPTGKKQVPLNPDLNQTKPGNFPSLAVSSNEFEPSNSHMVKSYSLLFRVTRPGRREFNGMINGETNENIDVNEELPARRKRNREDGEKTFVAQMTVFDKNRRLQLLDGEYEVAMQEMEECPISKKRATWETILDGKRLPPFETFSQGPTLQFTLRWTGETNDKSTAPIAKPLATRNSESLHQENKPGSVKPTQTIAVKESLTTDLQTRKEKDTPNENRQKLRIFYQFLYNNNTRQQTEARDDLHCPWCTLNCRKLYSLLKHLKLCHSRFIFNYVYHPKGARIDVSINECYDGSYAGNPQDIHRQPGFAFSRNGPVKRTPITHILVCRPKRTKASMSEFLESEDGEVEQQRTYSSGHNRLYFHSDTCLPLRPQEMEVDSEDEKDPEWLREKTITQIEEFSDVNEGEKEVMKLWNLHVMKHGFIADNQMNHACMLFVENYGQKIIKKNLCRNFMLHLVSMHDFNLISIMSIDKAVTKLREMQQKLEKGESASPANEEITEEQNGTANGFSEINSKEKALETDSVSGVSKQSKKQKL
Chain of EZH2 (Y641F) (Q09028 whole entry partner): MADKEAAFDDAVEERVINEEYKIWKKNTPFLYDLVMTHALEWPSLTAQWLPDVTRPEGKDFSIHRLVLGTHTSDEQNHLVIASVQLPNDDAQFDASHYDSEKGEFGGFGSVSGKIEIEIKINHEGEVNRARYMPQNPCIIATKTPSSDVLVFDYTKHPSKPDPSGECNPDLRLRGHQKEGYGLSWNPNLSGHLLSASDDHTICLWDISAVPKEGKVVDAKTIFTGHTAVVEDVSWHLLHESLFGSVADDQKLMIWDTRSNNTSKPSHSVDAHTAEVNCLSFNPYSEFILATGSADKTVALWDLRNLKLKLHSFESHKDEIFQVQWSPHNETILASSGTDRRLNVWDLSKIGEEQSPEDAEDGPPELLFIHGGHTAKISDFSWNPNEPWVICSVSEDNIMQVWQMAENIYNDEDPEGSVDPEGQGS
Chain of EZH2 (Y641F) (Q6ZN18 whole entry partner): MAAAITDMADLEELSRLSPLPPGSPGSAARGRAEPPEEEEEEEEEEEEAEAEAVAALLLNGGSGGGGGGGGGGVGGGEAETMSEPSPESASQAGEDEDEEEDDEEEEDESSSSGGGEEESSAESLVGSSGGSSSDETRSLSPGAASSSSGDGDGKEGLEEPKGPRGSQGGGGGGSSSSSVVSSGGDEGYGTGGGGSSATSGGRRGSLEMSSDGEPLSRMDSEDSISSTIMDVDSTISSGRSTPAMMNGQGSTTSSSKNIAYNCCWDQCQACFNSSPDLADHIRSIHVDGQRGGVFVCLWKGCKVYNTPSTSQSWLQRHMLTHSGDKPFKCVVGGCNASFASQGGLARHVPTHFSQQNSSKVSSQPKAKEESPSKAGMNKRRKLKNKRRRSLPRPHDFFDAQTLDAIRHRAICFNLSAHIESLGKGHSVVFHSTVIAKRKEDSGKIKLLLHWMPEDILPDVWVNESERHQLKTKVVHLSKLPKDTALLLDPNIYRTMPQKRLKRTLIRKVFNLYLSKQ

G9a = biological target: T1, G9a (Homo sapiens, UniProt Q96KQ7); experiment: Kinetic analysis by ALPHA (IC50 vs H3 peptide or SAM); assay type: biochemical; parameters: purchased BPS Bioscience; conditions: for pIC50: 3 replicates
T1 sequence (Q96KQ7 1-1210): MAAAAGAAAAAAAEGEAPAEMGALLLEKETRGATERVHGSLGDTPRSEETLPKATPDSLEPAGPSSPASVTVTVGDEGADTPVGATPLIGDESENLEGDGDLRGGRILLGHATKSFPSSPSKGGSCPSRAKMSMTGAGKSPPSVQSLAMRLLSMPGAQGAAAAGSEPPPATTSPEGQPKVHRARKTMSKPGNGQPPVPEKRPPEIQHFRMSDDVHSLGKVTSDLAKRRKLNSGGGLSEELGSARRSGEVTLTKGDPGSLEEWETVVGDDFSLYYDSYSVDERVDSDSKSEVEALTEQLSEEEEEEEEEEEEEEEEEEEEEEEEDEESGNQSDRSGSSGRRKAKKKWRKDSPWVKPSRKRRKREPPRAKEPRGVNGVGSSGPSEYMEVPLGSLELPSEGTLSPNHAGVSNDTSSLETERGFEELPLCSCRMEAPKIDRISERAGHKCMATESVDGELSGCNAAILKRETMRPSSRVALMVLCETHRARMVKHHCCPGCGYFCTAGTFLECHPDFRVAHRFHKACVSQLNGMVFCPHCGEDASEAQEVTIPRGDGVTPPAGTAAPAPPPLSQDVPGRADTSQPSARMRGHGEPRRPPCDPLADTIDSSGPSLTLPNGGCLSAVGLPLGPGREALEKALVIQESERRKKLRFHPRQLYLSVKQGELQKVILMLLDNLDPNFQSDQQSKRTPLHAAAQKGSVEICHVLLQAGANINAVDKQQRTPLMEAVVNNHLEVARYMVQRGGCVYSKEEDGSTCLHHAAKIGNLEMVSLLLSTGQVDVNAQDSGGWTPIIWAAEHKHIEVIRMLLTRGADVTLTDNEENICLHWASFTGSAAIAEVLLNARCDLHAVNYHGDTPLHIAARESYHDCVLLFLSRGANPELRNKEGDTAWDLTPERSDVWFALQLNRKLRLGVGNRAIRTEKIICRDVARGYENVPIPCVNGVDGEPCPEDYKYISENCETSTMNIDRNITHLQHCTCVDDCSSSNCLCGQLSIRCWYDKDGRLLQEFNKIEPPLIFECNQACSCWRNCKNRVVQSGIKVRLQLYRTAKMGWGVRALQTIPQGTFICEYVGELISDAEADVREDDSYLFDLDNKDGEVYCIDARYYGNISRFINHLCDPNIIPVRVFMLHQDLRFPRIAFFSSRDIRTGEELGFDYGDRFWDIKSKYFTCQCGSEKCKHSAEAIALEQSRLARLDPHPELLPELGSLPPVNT
Method: Kinetic analysis was measured by ALPHA. […] ALPHA profile was analyzed using Origin (OriginLab).

Cc1c(C(=O)NC(CCC2CC2)C(=O)Nc2ccc(C#N)cc2)[nH]c2c1C(=O)CC(C)(C)C2 (centres unmarked) [RK-701]
The body weight of individual mice ([1]; 12.5 mg/kg, Day0): 24.94 g
The body weight of individual mice ([1]; 12.5 mg/kg, Day1): 24.39 g
The body weight of individual mice ([1]; 12.5 mg/kg, Day3): 26.32 g and 24.79 g
The body weight of individual mice ([1]; 12.5 mg/kg, Day5): 26.12 g and 25.27 g and 26.24 g
The body weight of individual mice ([1]; 12.5 mg/kg, Day7): 26.84 g and 25.44 g and 25.63 g
The body weight of individual mice ([1]; 12.5 mg/kg, Day9): 26.98 g and 26.32 g and 26.65 g
The body weight of individual mice ([1]; 12.5 mg/kg, Day11): 27.95 g and 26.07 g and 25.28 g
The body weight of individual mice ([1]; 12.5 mg/kg, Day14): 27.71 g and 26.81 g and 27.50 g
The body weight of individual mice ([1]; 25 mg/kg, Day0): 23.49 g and 24.32 g and 24.36 g
The body weight of individual mice ([1]; 25 mg/kg, Day1): 23.24 g and 25.05 g and 21.93 g
The body weight of individual mice ([1]; 25 mg/kg, Day2): 24.39 g and 26.13 g and 23.16 g
The body weight of individual mice ([1]; 25 mg/kg, Day3): 24.09 g and 26.66 g and 23.50 g
The body weight of individual mice ([1]; 25 mg/kg, Day4): 24.79 g and 27.09 g and 24.50 g
The body weight of individual mice ([1]; 25 mg/kg, Day5): 25.11 g and 26.53 g and 25.43 g
The body weight of individual mice ([1]; 25 mg/kg, Day7): 25.92 g and 26.25 g and 25.57 g
The body weight of individual mice ([1]; 25 mg/kg, Day9): 25.69 g and 26.57 g and 26.31 g
The body weight of individual mice ([1]; 25 mg/kg, Day11): 26.68 g and 27.09 g and 27.51 g
The body weight of individual mice ([1]; 25 mg/kg, Day14): 26.24 g and 26.26 g and 28.11 g
The body weight of individual mice ([1]; 50 mg/kg, Day0): 22.18 g and 23.36 g and 23.10 g
The body weight of individual mice ([1]; 50 mg/kg, Day1): 22.71 g and 22.55 g and 24.93 g
The body weight of individual mice ([1]; 50 mg/kg, Day2): 23.39 g and 22.67 g and 25.00 g
The body weight of individual mice ([1]; 50 mg/kg, Day3): 24.41 g and 22.89 g and 25.00 g
The body weight of individual mice ([1]; 50 mg/kg, Day4): 24.33 g and 23.75 g and 26.48 g
The body weight of individual mice ([1]; 50 mg/kg, Day5): 24.37 g and 24.57 g and 26.83 g
The body weight of individual mice ([1]; 50 mg/kg, Day7): 25.33 g and 23.96 g and 27.23 g
The body weight of individual mice ([1]; 50 mg/kg, Day9): 25.95 g and 24.94 g and 26.92 g
The body weight of individual mice ([1]; 50 mg/kg, Day11): 26.83 g and 25.42 g and 28.13 g
The body weight of individual mice ([1]; 50 mg/kg, Day14): 27.45 g and 26.37 g and 28.85 g
The body weight of individual mice ([1]; 100 mg/kg, Day0): 22.92 g and 23.08 g and 22.86 g
The body weight of individual mice ([1]; 100 mg/kg, Day1): 21.12 g and 23.93 g and 21.40 g
The body weight of individual mice ([1]; 100 mg/kg, Day2): 22.69 g and 24.09 g and 22.95 g
The body weight of individual mice ([1]; 100 mg/kg, Day3): 23.07 g
acute toxicity, body weight ([1]; mouse, in vivo, iv): no significant body weight loss
pIC50 (EZH2 (Y641F)): < 4.00
mode of inhibition, SAM (G9a): uncompetitive inhibition with respect to SAM
mode of inhibition, histone H3 peptide (G9a): histone H3 substrate-competitive inhibitor
pIC50 (G9a; H3(1-21)-biotin 6.25 nM): 8.01 and 8.02 and 8.05
pIC50 (G9a; H3(1-21)-biotin 12.5 nM): 8.08 and 7.87 and 7.98
pIC50 (G9a; H3(1-21)-biotin 25 nM): 7.93 and 7.74 and 7.76
pIC50 (G9a; H3(1-21)-biotin 50 nM): 7.69 and 7.49 and 7.58
pIC50 (G9a; H3(1-21)-biotin 100 nM): 7.46 and 7.50
pIC50 (G9a; SAM 0.47 µM): 6.81 and 6.83 and 6.82
pIC50 (G9a; SAM 0.94 µM): 7.19 and 7.01 and 7.37
pIC50 (G9a; SAM 1.88 µM): 7.51 and 7.24 and 7.61
pIC50 (G9a; SAM 3.75 µM): 7.63 and 7.40 and 7.68
pIC50 (G9a; SAM 7.5 µM): 7.56 and 7.41 and 7.93
pIC50 (G9a; SAM 15 µM): 7.60 and 7.43 and 7.89
